{
  "source": "patent US20260217776A1",
  "about": "“COMPOUND WITH ANTITUMOR ACTIVITY, COR[…] AND COR[…]” (priority 2023, published 2026)",
  "key": {"in vitro": {"assay": "in vitro", "description": "(§1) The cytotoxic activity assays were performed using a […] human epidermoid carcinoma cell line (American Type Culture Collection) and, as control, non-tumor cell lines of normal dermal fibroblasts (NDFa) and immortalized human keratinocytes (HACAT).\n(§2) The used cells were placed in culture dishes (Corning®) and treated with the peptide (at a concentration of 150 μM) for 1 day and 6 days. In parallel, the same lines were prepared, without being treated with the peptide, as a negative control.\n(§3) The analyzes were performed with a resazurin-based cytotoxicity assay (Sigma Aldrich) and a trypan blue exclusion assay."}, "[1]": {"test_system": "KB31 human epidermoid carcinoma cell line", "conditions": "for cell viability: KB31 line, peptide 150 μM, untreated 100%", "description": "as §1, §2, §3"}, "[2]": {"test_system": "immortalized human keratinocytes (HACAT)", "assay": "apoptotic activity assay (BD cell viability kit)", "type": "cell-based", "conditions": "HACAT line, peptide 150 μM", "description": "(§4) The same cell lines were used to verify the apoptotic activity of the peptide, providing the same treatment and the same negative controls. The percentage of apoptotic cells was determined using a BD™ cell viability kit (BD Biosciences), following the manufacturer's instructions. The results are expressed as average values in percentages taking into account the standard error of the mean (SEM)."}, "[3]": {"test_system": "normal dermal fibroblasts (NDFa)", "assay": "apoptotic activity assay (BD cell viability kit)", "type": "cell-based", "conditions": "NDFa line, peptide 150 μM", "description": "as §4"}, "[4]": {"test_system": "KB31 human epidermoid carcinoma cell line", "assay": "apoptotic activity assay (BD cell viability kit)", "type": "cell-based", "conditions": "peptide 150 μM", "description": "as §4"}, "[5]": {"conditions": "human, immortalized keratinocytes (HACAT)"}, "[6]": {"conditions": "normal dermal fibroblasts (NDFa)"}},
  "note": "Where two headings read alike, the source gives them in different places. Bridge positions count the residues as written; N and C are the ends. Peptide text beside a SMILES is read from it.",
  "data": [
    {"compound": "CC(C)C[C@@H]1NC(=O)[C@H](CC(=O)O)NC(=O)[C@H](CC(N)=O)NC(=O)[C@H](CCCCN)NC(=O)[C@H](CCCNC(=N)N)NC(=O)CNC(=O)[C@H](CCC(=O)O)NC(=O)[C@H](Cc2c[nH]cn2)NC(=O)CNC(=O)[C@H](CCCNC(=N)N)NC(=O)[C@H](CCC(=O)O)NC(=O)[C@H](CO)NC(=O)[C@H](CC(C)C)NC(=O)[C@H]([C@@H](C)O)NC(=O)[C@H](CC(C)C)NC(=O)[C@H](CC(C)C)NC(=O)[C@@H]2CCCN2C(=O)[C@@H](NC(=O)[C@@H](N)CO)CSSC[C@@H](C(=O)N[C@@H](CCCNC(=N)N)C(=O)O)NC(=O)[C@H](CCC(=O)O)NC(=O)[C@H](C(C)C)NC(=O)[C@H](CCCCN)NC(=O)[C@H](CCCCN)NC1=O", "note": "[peptide] (H-SCPLLTLSERGHEGRKNDLKKVECR-OH; disulfide 2-24; N-terminus assumed)", "values": [
      {"measurement": "viability at 1 day, 150 μM", "setting": "in vitro; [5]", "value": "~85", "unit": "%"},
      {"measurement": "viability at 6 days, 150 μM", "setting": "in vitro; [5]", "value": "~85", "unit": "%"},
      {"measurement": "viability at 1 day, 150 μM", "setting": "in vitro; [6]", "value": "~80", "unit": "%"},
      {"measurement": "viability at 6 days, 150 μM", "setting": "in vitro; [6]", "value": "~80", "unit": "%"},
      {"measurement": "cell viability", "setting": "[1]; 1 day", "value": 77, "unit": "%"},
      {"measurement": "cell viability", "setting": "[1]; 6 days", "value": "approximately 45%"},
      {"measurement": "selectivity toward tumor cells", "setting": "[1]; KB31 tumor cells versus non-tumor NDFa and HACAT, cytotoxic and apoptotic assays", "value": "good selectivity toward tumor cells"},
      {"measurement": "apoptosis (percentage of apoptotic cells)", "setting": "[2]; 1 day", "value": "less than 5%"},
      {"measurement": "apoptosis (percentage of apoptotic cells)", "setting": "[2]; 6 days", "value": "less than 5%"},
      {"measurement": "apoptosis (percentage of apoptotic cells)", "setting": "[3]; 1 day", "value": "less than 5%"},
      {"measurement": "apoptosis (percentage of apoptotic cells)", "setting": "[3]; 6 days", "value": "less than 5%"},
      {"measurement": "apoptosis (percentage of apoptotic cells)", "setting": "[4]; 1 day", "value": "less than 5%"},
      {"measurement": "apoptosis (percentage of apoptotic cells)", "setting": "[4]; 6 days, negative control just over 10%", "value": "more than 50%"}
    ]}
  ]
}
